Source: patent US20240400555A1 (Initial Therapeutics, Inc., priority 2023, published 2024)

System: MV-4-11 cells
Assay: Cell Viability Assay in MV-4-11 Cells
Type: cell-based
Conditions: Homo sapiens, MV4-11, 72 h, MV-4-11 cells, 72 h, Cell-Titer Glo; read-out: IC50
Protocol: MV-4-11 cells (ATCC) were seeded into sterile 96-well flat clear bottom white polystyrene TC-treated microplates (Corning) at 7,000 cells/well in 150 μL complete growth medium (Iscove's Modified Dulbecco's Medium (IMDM) (Gibco), 10% Heat Inactivated Fetal Bovine Serum (HyClone), 1% Penicillin-Streptomycin-L-Glutamine (HyClone), 1% GlutaMAX (Gibco)). […] After 72 h incubation, plates were removed from incubators and allowed to equilibrate to room temperature (˜10 min) before adding 50 μL per well Cell-Titer Glo reagent (Promega) using a WellJet (Integra Biosciences) dispenser. Plates were then incubated at room temperature for 2-20 min prior to measurement of luminescence on an Envision (Perkin Elmer) plate reader. Data were normalized to DMSO (100% viability) and analyzed using a non-linear four-parameter curve fit.

| Compound | IC50 [nM] |
| --- | --- |
| O=C(c1ccc(-c2cnn3cccnc23)cc1)N(c1nccc2ccccc12)[C@@H]1CCCNC1 [Example 302, (R)—N-(isoquinolin-1-yl)-N-(piperidin-3-yl)-4-(pyrazolo[1,5-a]pyrimidin-3-yl)benzamide] | 480 |
| Cn1ccc2ccnc(N(C(=O)c3ccc(-c4cnn5cccnc45)cc3)[C@@H]3CCCNC3)c21 [Example 303, (R)—N-(1-methyl-1H-pyrrolo[2,3-c]pyridin-7-yl)-N-(piperidin-3-yl)-4-(pyrazolo[1,5-a]pyrimidin-3-yl)benzamide] | 450 |
| CN(C)C/C=C/C(=O)Nc1cccc(C2CCN(C(=O)N(c3nccc4ccn(C)c34)[C@@H]3CCCNC3)CC2)c1 [Example 304, (R,E)-4-(3-(4-(dimethylamino)but-2-enamido)phenyl)-N-(1-methyl-1H-pyrrolo[2,3-c]pyridin-7-yl)-N-(piperidin-3-yl)piperidine-1-carboxamide] | 37 |
| O=C(c1ccc(-n2nnc3cccnc32)cc1)N(c1ncccc1Cl)[C@@H]1CCCNC1 [Example 305, (R)-4-(3H-[1,2,3]triazolo[4,5-b]pyridin-3-yl)-N-(3-chloropyridin-2-yl)-N-(piperidin-3-yl)benzamide] | 1600 |
| Cc1cc(-n2nnc3cccnc32)ccc1C(=O)N(c1nccc2cccc(C)c12)[C@@H]1CCCNC1 [Example 306, (R)-4-(3H-[1,2,3]triazolo[4,5-b]pyridin-3-yl)-2-methyl-N-(8-methylisoquinolin-1-yl)-N-(piperidin-3-yl)benzamide] | 58 |
| CCc1cc(-n2nnc3cccnc32)ccc1C(=O)N(c1nccc2cccc(C)c12)[C@@H]1CCCNC1 [Example 307, (R)-4-(3H-[1,2,3]triazolo[4,5-b]pyridin-3-yl)-2-ethyl-N-(8-methylisoquinolin-1-yl)-N-(piperidin-3-yl)benzamide] | 100 |

The next lines start with the values.

| IC50 [nM] | Compound |
| --- | --- |
| 46 | Cc1nnc(-c2ccc(C(=O)N(c3nccc4cc(-c5nccs5)cc(C)c34)[C@@H]3CCCNC3)c(F)c2)s1 (racemic) [Example 733, 2-fluoro-4-(5-methyl-1,3,4-thiadiazol-2-yl)-N-(8-methyl-6-thiazol-2-yl-1-isoquinolyl)-N-[rac-(3R)-3-piperidyl] benzamide] |
| > 10000 | Cn1cc(-c2ccc(C(=O)N(c3nccc4cccc(C=CCO)c34)[C@@H]3CCCNC3)cc2)nn1 (stereo in doubt) [Example 338, (R,Z)—N-(8-(3-hydroxyprop-1-en-1-yl)isoquinolin-1-yl)-4-(1-methyl-1H-1,2,3-triazol-4-yl)-N-(piperidin-3-yl)benzamide] |
| 25 | COc1cc(-n2nnc3cccnc32)ccc1C(=O)N(c1nccc2cccc(C)c12)[C@@H]1CCCNC1 [Example 308, (R)-4-(3H-[1,2,3]triazolo[4,5-b]pyridin-3-yl)-2-methoxy-N-(8-methylisoquinolin-1-yl)-N-(piperidin-3-yl)benzamide] |
| 280 | Cc1cccc2ccnc(N(C(=O)c3ccc(Nc4ncccn4)cc3)[C@@H]3CCCNC3)c12 [Example 309, (R)—N-(8-methylisoquinolin-1-yl)-N-(piperidin-3-yl)-4-(pyrimidin-2-ylamino)benzamide] |
| 28 | Cc1cccc2ccnc(N(C(=O)c3ccc(-n4nnc5cccnc54)cc3Cl)[C@@H]3CCCNC3)c12 [Example 310, (R)-4-(3H-[1,2,3]triazolo[4,5-b]pyridin-3-yl)-2-chloro-N-(8-methylisoquinolin-1-yl)-N-(piperidin-3-yl) benzamide] |
| 23 | Cc1cccc2ccnc(N(C(=O)c3ccc(N4CCOCC4)cc3F)[C@@H]3CCCNC3)c12 [Example 311, (R)-2-fluoro-N-(8-methylisoquinolin-1-yl)-4-morpholino-N-(piperidin-3-yl)benzamide] |
| 2600 | Cc1cccc2ccnc(N(C(=O)c3ccc(-n4nnc5cccnc54)cc3C(F)(F)F)[C@@H]3CCCNC3)c12 [Example 312, (R)-4-(3H-[1,2,3]triazolo[4,5-b]pyridin-3-yl)-N-(8-methylisoquinolin-1-yl)-N-(piperidin-3-yl)-2-(trifluoromethyl)benzamide] |
